Source: US8541670B2, “Compositions and methods for inhibiting tumor cell growth” (priority 2007, dated 2013)
Where no end group is shown, it is not given here.

Assays:
[1] = molecular target: T1, AKT (Homo sapiens, UniProt P31749); assay: Screen of PKAc peptide library for effect on catalytic activity of AKT; format: biochemical; conditions: single peptide
T1 construct: purchased Upstate Biotechnology
From the text: Unlike PKAc and protein kinase C (PKC) for which potent inhibitor peptides are readily available and widely used, inhibitors of AKT are generally lacking (Brazil, et al. (2004) supra). […] Moreover, optimal substrate motifs for AKT have been modified to design AKT inhibitors (Obata, et al. (2000) J. Biol. Chem. 275:36108-36115). Because the full-length PKAc protein inhibited the catalytic activity of AKT, a peptide library based on the human (GENBANK Accession No. NP_002721; SEQ ID NO:1) and bovine (GENBANK Accession No. CAA47627; SEQ ID NO:2) PKAc protein sequences was designed and synthesized. This library contained 96 overlapping peptides (Table 1), covering the full-length protein sequence of human and bovine PKAc from the N- to C-terminus. The library was extensively screened to identify fragments of PKAc that mediated the inhibitory effect of PKAc toward AKT.
These peptides included peptide 49 (SEQ ID NO:56), 53 (SEQ ID NO:60), 62 (SEQ ID NO:69), 63 (SEQ ID NO:70) and 64 (SEQ ID NO:71). Combinations of consecutive overlapping peptide fragments were also assayed for an effect on the catalytic activity of AKT. A significant inhibitory effect was also observed when peptides 25 through 36 were combined (i.e., SEQ ID NOs:32-43), peptides 37 through 48 were combined (i.e., SEQ ID NOs:44-55), peptides 49 through 60 were combined (i.e., SEQ ID NOs:56-67), and peptides 61 through 72 were combined (i.e., SEQ ID NOs:68-79).

[2] = molecular target: TrkB (Homo sapiens, UniProt Q16620); assay: In vitro kinase assay TrkB; format: biochemical; conditions: ten times higher concentration than 0.1 μM
Method: As a specific substrate, the phosphorylation level of GSK-3[…] at Ser-9 was also evaluated. […] The decrease was specific to the AKT phosphorylation site on GSK-3[…] at Ser-9, since a change in the phosphorylation level of GSK-3[…] at Tyr-216 or GSK-3[…] at Tyr-279 was not observed. Moreover, the in vivo reduction of the phosphorylation of AKT substrates was more obvious at the injection site, since a significant change in the phosphorylation of AKT substrates in the frontal cortex or cerebellum between the two hemispheres was not observed. […] To test the specificity/selectivity of ZaTa as the inhibitor of AKT1 versus the other major kinases, a series of in vitro kinase assays was performed at IC50 for AKT1 and at ten times higher concentrations. A panel of the following 32 kinases was first tested in vitro using the active form of each kinase and a specific substrate: AKT2, AKT3, PKA, PKC[…], PKC, PI3K[…], PI3K[…], PI3K, SGK, PAK2, PAK3, SAPK2/p38, Abl, CaMKII, CDK1/cyclinB, CDK5/p35, CK1, CK2, CSK, GSK3[…], GSK3[…], JNK1[…]1, MAPK1, p70S6K, PDGFR[…], PDGFR[…], PDK1, PKG1[…], TrkB, JAK2, JAK3, and Syk. […] However, at ten times higher concentration, ZaTa inhibited AKT2 (63%), PI3K[…] (72%), p70S6K (64%), SGK (73%), PAK3 (83%), JAK3 (79%), TrkB (84%), and Abl (42%). […]

[3] = system: the other kinases assayed; assay: In vivo selectivity, western blot of phosphorylated substrates, other kinases inhibited in vitro at higher concentrations; set-up: species or system mouse; conditions: versus DMSO hemisphere
Method: To analyze in vivo selectivity, ZaTa was injected into one hemisphere and DMSO in the other hemisphere, as above, and a series of western blot analyses was preformed with phospho-specific antibodies which recognize a phosphorylated substrate or each one of the kinases that ZaTa inhibited at higher concentrations in vitro. […] Given the high functional and structural homology between p70S6K and AKT, the in vivo inhibitory effect of ZaTa on p70S6K was contemplated. Furthermore, the in vivo effect of ZaTa on the phosphorylation levels of substrates for PKA, PKC, CDKs using phospho-specific antibodies recognizing the phosphorylated consensus sites of these kinases was analyzed. In contrast to the consistent decrease in phosphorylation of AKT substrates, significant changes in the phosphorylation level of PKA, PKC and CDKs substrates was not observed after in vivo injection of ZaTa.
Phosphorylation sites for kinases analyzed herein included Ser-235/236 S6 (a substrate for p70S6K), Tyr-207 CRKL (a substrate for Abl; Zipfel, et al. (2004) supra), Ser-241 PDK1 (a substrate for PI3K), Tyr-1022/1023 JAK1 (a substrate for JAK3; Wang, et al. (2003) supra), Ser-421 Huntingtin (a substrate for SGK; Rangone, et al. (2004) supra), Tyr-783 PLC (a substrate for TrkB; Middlemas, et al. (1994) supra), and Ser-338 cRaf (a substrate for PAK3; King, et al. (1998) supra).

[4] = mouse, in vivo
[5] = molecular target: AKT-PKAc complex (Mus musculus, UniProt P31750); assay: Co-immunoprecipitation of AKT-PKAc complex in N2a cells; format: cell-based; set-up: Neuroblastoma 2a (N2a) neurons expressing an endogenous level of AKT and PKAc; endogenous in cells; host or cells: N2a neuroblastoma cells; conditions: 24-hour treatment
Method: Accordingly, the stability and phenotypic consequences of the AKT-PKAc complex was also analyzed in cultured neurons. N2a cells were treated with vehicle, ZaTa or control peptide for 24 hours. Media was removed after the 24-hour treatment and an equal number of cells from each treatment group was either cultured for another 24 hours without treatment, or lysed and subjected to immunoprecipitation with an antibody against AKT. Those cells cultured for another 24 hours were also harvested and subjected to immunoprecipitation. In parallel, the number of individual neurons with neurites was counted. […] Live images of N2a neurons were captured following treatment with vehicle or ZaTa (2 or 5 μM). […] ZaTa-mediated changes included a progressive loss of neurites, inhibition of new neurite formation, loss of cell motility, as well as formation of large cell colonies.

Sequence of TrkB (Q16620 32-822, species assumed): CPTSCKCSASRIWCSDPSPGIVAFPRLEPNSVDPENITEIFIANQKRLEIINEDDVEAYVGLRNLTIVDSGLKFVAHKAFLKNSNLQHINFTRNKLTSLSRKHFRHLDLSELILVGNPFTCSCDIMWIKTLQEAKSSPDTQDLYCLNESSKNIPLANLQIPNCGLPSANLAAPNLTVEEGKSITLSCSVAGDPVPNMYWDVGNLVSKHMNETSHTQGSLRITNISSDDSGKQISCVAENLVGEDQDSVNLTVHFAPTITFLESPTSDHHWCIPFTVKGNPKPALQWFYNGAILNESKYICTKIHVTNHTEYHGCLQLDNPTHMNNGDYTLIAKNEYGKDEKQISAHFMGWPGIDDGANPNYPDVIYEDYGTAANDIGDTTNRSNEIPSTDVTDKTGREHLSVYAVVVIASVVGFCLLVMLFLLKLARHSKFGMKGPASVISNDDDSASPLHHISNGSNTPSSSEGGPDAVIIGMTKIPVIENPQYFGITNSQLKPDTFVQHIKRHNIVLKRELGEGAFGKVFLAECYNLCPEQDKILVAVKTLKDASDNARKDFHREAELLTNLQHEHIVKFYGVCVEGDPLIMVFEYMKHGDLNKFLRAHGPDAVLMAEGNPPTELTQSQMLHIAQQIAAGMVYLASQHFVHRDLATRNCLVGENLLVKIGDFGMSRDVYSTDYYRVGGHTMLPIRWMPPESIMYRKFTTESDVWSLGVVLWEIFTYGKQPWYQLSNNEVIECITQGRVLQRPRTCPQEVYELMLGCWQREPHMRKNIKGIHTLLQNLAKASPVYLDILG
Sequence of AKT-PKAc complex (P31750 whole entry, one chain of several): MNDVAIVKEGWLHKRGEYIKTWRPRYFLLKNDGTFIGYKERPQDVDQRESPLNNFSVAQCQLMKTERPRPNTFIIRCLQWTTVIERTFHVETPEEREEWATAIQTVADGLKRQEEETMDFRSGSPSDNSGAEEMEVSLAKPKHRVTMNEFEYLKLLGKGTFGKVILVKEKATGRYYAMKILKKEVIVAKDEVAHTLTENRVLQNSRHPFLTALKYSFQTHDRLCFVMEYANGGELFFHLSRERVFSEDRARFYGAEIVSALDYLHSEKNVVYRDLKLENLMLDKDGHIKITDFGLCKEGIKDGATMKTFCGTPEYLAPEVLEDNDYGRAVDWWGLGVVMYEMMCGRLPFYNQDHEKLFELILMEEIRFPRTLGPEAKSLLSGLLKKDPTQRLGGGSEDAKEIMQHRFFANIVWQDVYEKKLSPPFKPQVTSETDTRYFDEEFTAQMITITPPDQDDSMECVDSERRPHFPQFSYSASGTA
T1 sequence (P31749 whole entry): as the sequence (P31750 whole entry, one chain of several) above, with N2S, S50A, A100T, R112K, T117E, T389K, N410G, D415H counted along it

AKRVKGRTWTLCGTPEY [ZaTa]
inhibitory effect toward AKT, individual library peptides [1]: significant inhibitory effects | inhibition of TrkB [2]: 84% | in vivo inhibitory effects on the other kinases assayed [3]: No in vivo inhibitory effects | distribution and absorption throughout brain tissue [4]: efficient distribution and absorption | amount of PKAc in physical contact with AKT, N2a cells [5]: reduced the amount of PKAc in physical contact with AKT
